Measurements taken from the NIST ThermoML archive (doi:10.1016/j.jct.2015.02.006).
Numbers after ± are expanded uncertainties.

Conditions: Liquid, Closed cell (Static) method

## CC1CO1 (centres undefined) [methyloxirane]
303.15 K
  vapor or sublimation pressure: 86.9 ± 1.2 kPa
318.15 K
  vapor or sublimation pressure: 147.85 ± 1.9 kPa
333.15 K
  vapor or sublimation pressure: 237.88 ± 2.8 kPa

## CCO [ethanol]
303.15 K
  vapor or sublimation pressure: 10.42 ± 0.38 kPa
318.15 K
  vapor or sublimation pressure: 23.02 ± 0.46 kPa
333.15 K
  vapor or sublimation pressure: 46.63 ± 0.58 kPa

## CCCO [propan-1-ol]
303.15 K
  vapor or sublimation pressure: 3.63 ± 0.31 kPa
318.15 K
  vapor or sublimation pressure: 9.01 ± 0.34 kPa
333.15 K
  vapor or sublimation pressure: 19.93 ± 0.39 kPa
